System: triple-negative breast cancer 4T1 cells
Test: Antitumor effect of α-GalCer liposome against breast cancer by repetitive subcutaneous administration
Format: in vivo, BALB/c mouse
Settings: s.c. left flank, 4 times every 5 days, α-GalCer 15 µg; n=2 shown
Procedure: The following liposome samples prepared using PBS in Example 1 were used. • (1-2) 50% α-GalCer / negatively charged PEG terminal -OH liposome, 100 nm • (1-11) 0% control / negatively charged PEG terminal -OH liposome, 100 nm The liposome samples were adjusted to a PEGylated liposome concentration of 1 mg/mL (in terms of total lipids), and used as administration samples. PBS was used for the adjustment of the PEGylated liposome concentration. The administration sample prepared from the aforementioned (1-2) was used as the α-GalCer liposome administration sample of the Example (αGal lipo), and the administration sample prepared from the aforementioned (1-11) was used as the control liposome administration sample (Ctrl lipo). In addition, a free GalCer sample (Free αGal) in which free α-GalCer not formulated into a liposome was suspended in PBS, and PBS, were each used as administration samples.
As breast cancer cells, triple-negative breast cancer 4T1 cells were used. 4T1 cells (5.0×10^5 to 1.0×10^6 cells/mouse) were subcutaneously inoculated into the vicinity of the second teat from the top of the left chest of a BALB/c mouse (5 weeks old, female, n=2). When the average tumor volume reached 40 to 100 mm^3, the mice were randomly divided into groups. Then, the administration sample was subcutaneously injected into the left flank of the mouse (Day 0). […]

Compound: CCCCCCCCCCCCCCCCCCCCCCCCCC(=O)N[C@@H](CO[C@H]1O[C@H](CO)[C@H](O)[C@H](O)[C@H]1O)[C@H](O)[C@H](O)CCCCCCCCCCCCCC [α-GalCer, (2S,3S,4R)-1-O-(α-D-galactopyranosyl)-2-hexacosanoylamino-1,3,4-octadecanetriol]
- increase in tumor volume: suppressed
